The values that follow come from paper PMC8483441 (Journal of Medicinal Chemistry, 2021).

In brackets after ≈: the same amount, converted by molar mass. Square brackets hold non-standard residues; d marks the D form. Ends that are not written are not given here. Peptide text beside a SMILES is read from it. dOrn = NCCC[C@@H](N)C(=O)O; Orn = NCCC[C@H](N)C(=O)O

One data set relates to E. coli. Format: cell-based, Escherichia coli. Conditions: 24 h. Here is the method:
(§1) Human serum was purchased from Sigma (St Louis, USA).
(§2) Incubations were kept at 37 °C for 24 h. Results are the average of three independent studies.

The test system of a further data set is A. baumannii. Type of data set: cell-based, Acinetobacter baumannii. As to conditions: A. baumannii ATCC 15308; Mueller-Hinton medium, 5 × 10^5 CFU/mL, 37 °C, 24 h; average of three independent studies. Here is the method:
as §1, §2

In data set [1] the test system is Pseudomonas sp. The data set is described as follows: MIC, broth microdilution. Format: cell-based. Conditions: Pseudomonas sp. ATCC 15915; Mueller-Hinton medium, 5 × 10^5 CFU/mL, 37 °C, 24 h; average of three independent studies. Here is the method: as §1, §2
The next data set deals with S. enterica. Type of data set: cell-based, Salmonella enterica. Conditions: 24 h. Here is the method:
as §1, §2

A further data set relates to S. flexneri. As to conditions: 24 h. From the text:
Purified horse red blood cells were acquired from Thermo Fisher Scientific (Hampshire, England). Human serum was purchased from Sigma (St Louis, USA). E. coli was obtained from the Coli Genetic Stock Center (BW25113). S. flexneri (ATCC 29903), A. baumannii (ATCC 15308), Pseudomonas sp. (ATCC 15915), and S. enterica (ATCC 14028) were obtained from the CECT (Valencia, Spain). Clinical strains were supplied by the Vall d’Hebron Hospital (Barcelona, Spain). MRC5 fibroblasts were obtained from the Cytometry and Cell Culture Facility (SCAC, UAB) and originally purchased from ATCC.
The antibiotic activity was defined by the minimum peptide concentration where the microorganism is unable to grow. The assay was done in polypropylene 96-well plates (Greiner, Frickenhausen, Germany) to avoid peptide binding to plate wells. Peptides were dissolved in water containing 0.4% w/v bovine serum albumin (BSA) and 0.02% v/v glacial acetic acid to prevent self-aggregation, following the reference protocol by Wiegand et al.,[42] based on the classical microtiter broth dilution recommended by the […]. Initial bacteria inoculum was adjusted to 5 × 10^5 CFU/mL in Mueller-Hinton (MH) medium. Incubations were kept at 37 °C for 24 h. Results are the average of three independent studies. MIC assays in the presence of serum were performed by incubating the peptide with human serum at a 1:1 ratio. Then, 10^6 cfu/mL of Pseudomonas sp. were incubated with serial dilutions of the peptides for 4 h. To determine the MBC, 50 μL from all wells were seeded into Petri plates and incubated for 24 h. The MBC concentration was attributed to the lowest concentration without detectable bacterial growth for each peptide.

The subject of another data set is horse red blood cells. The data set is described as follows: Hemolytic activity. Format: cell-based. Conditions: red cells of horse, 4 h. The method, then: The peptide toxicity was determined detecting the disruption of horse red blood cells, following a previous assay report.[35] 10-fold diluted cells in PBS were centrifuged three times at 800g to eliminate the hemoglobin from disrupted cells. After the last resuspension, erythrocytes were incubated with the peptides for 4 h at 37 °C. The detection was done measuring the supernatant absorbance in a VICTOR3 multilabel plate reader (Perkin Elmer, Waltham, Massachusetts) at 540 nm in a microplate reader. Percentage of hemolysis was calculated through a pattern done with dilutions of total cell lysis done with a 1% Triton X-100 buffer. Results are the average of three independent studies.

The nature of data set [2]: Cytotoxicity in mammalian cells (MTT assay). Type of data set: cell-based. As to conditions: MRC-5 cytotoxicity (IC50). The method, then:
(§3) MRC-5 cells were grown in Eagle’s minimum essential medium (MEMα), supplemented with 10% fetal bovine serum (FBS). 96-well plates were seeded with 3 × 10^4 cells/well and cultured overnight in order to get cells adhered into the plate and then incubated with two-fold peptide serial dilutions. After 4 h of incubation, the medium containing the peptides was replaced by MEMα supplemented with FBS and 3-(4,5-dimethylthiazol-2-yl)-2,5-diphenyltetrazolium bromide (MTT) at 0.4 mg/mL and incubated for 150 min. Detection of formazan crystals in the living cells was done by cell disruption by addition of 200 μL of dimethyl sulfoxide (DMSO) followed by absorbance measuring at 600 nm in a Tecan Infinite F Nano+ microplate reader (Tecan, Germany). Results are the average of three independent studies.
(In general: Tetrazolium dyes change colour on reduction, which living cells bring about.)

The subject of another data set is MRC-5 cells. Put plainly: Cytotoxicity in mammalian cells (MTT assay). Type of data set: cell-based. Conditions: 4 h. The method, then: as §3
The subject of another data set is A. baumannii 3862. The data set is described as follows: MIC, clinical bacterial strain. Format: cell-based. Here is the method:
as §1, §2

The next data set relates to A. baumannii 3878. Put plainly: MIC, clinical bacterial strain. Type of data set: cell-based. Here is the method: as §1, §2
Another data set concerns A. baumannii 3879. Put plainly: MIC, clinical bacterial strain. Type of data set: cell-based. Here is the method:
as §1, §2

For another data set, the system named is A. baumannii 3880. The data set is described as follows: MIC, clinical bacterial strain. Format: cell-based. The method, then: as §1, §2
The subject of a further data set is E. coli 116878. Put plainly: MIC, clinical bacterial strain. Format: cell-based. The method, then: as §1, §2
The next data set has as its system E. coli cf073. The data set is described as follows: MIC, clinical bacterial strain. Type of data set: cell-based. The method, then:
as §1, §2

The subject of a further data set is P. aeruginosa 827632. The data set is described as follows: MIC, clinical bacterial strain. Type of data set: cell-based. Here is the method: as §1, §2
For a further data set, the system named is P. aeruginosa 827651. The data set is described as follows: MIC, clinical bacterial strain. Format: cell-based. The method, then: as §1, §2
In a further data set the test system is S. typhimurium 324. The data set is described as follows: MIC, clinical bacterial strain. Format: cell-based. Here is the method:
as §1, §2

The next data set relates to S. typhimurium 365. Put plainly: MIC, clinical bacterial strain. Format: cell-based. The method, then:
as §1, §2

The test system of a further data set is Acinetobacter baumannii. Format: cell-based. As to conditions: 50 μL from MIC wells seeded into Petri plates, 24 h; lowest concentration without detectable growth. The method, then:
as §2

The test system of a further data set is Escherichia coli. Format: cell-based. Conditions: 24 h. Here is the method:
as §2

The next data set has as its system Salmonella enterica. Format: cell-based. As to conditions: 24 h. Here is the method: as §2
Data set [3] deals with Pseudomonas sp. The data set is described as follows: Minimum bactericidal concentration (MBC). Conditions: 50 μL from MIC wells seeded into Petri plates, 24 h; lowest concentration without detectable growth. Type of data set: cell-based. Here is the method: as §2
For the next data set, the system named is Shigella flexneri. As to conditions: 50 μL from MIC wells seeded into Petri plates, 24 h; lowest concentration without detectable growth.
Data set [4] has as its system Pseudomonas sp. The data set is described as follows: MIC of peptides incubated with human serum. As to conditions: peptide incubated with human serum 1:1; 10^6 cfu/mL Pseudomonas sp., 4 h. Format: cell-based. Here is the method: as §2

Description for Shigella flexneri: The antibiotic activity was defined by the minimum peptide concentration where the microorganism is unable to grow. The assay was done in polypropylene 96-well plates (Greiner, Frickenhausen, Germany) to avoid peptide binding to plate wells. Peptides were dissolved in water containing 0.4% w/v bovine serum albumin (BSA) and 0.02% v/v glacial acetic acid to prevent self-aggregation, following the reference protocol by Wiegand et al.,[42] based on the classical microtiter broth dilution recommended by the National Committee of Laboratory Safety and Standards (NCLSS). Initial bacteria inoculum was adjusted to 5 × 10^5 CFU/mL in Mueller-Hinton (MH) medium. Incubations were kept at 37 °C for 24 h. Results are the average of three independent studies. […] To determine the MBC, 50 μL from all wells were seeded into Petri plates and incubated for 24 h. The MBC concentration was attributed to the lowest concentration without detectable bacterial growth for each peptide.

In the case of `CC[C@H](C)[C@H](NC(=O)[C@H](C)NC(=O)[C@H](CCCN)NC(=O)[C@H](CCSC)NC(=O)[C@H](C)NC(=O)[C@@H](NC(=O)[C@@H](NC(=O)[C@H](CCCN)NC(=O)[C@@H]1CCCN1C(=O)[C@H](CO)NC(=O)[C@@H](NC(=O)[C@H](Cc1c[nH]cn1)NC(=O)[C@H](CCC(N)=O)NC(=O)[C@@H](NC(=O)[C@H](C)NC(=O)[C@H](Cc1ccccc1)NC(=O)[C@H](Cc1c[nH]c2ccccc12)NC(=O)[C@H](CCC(N)=O)NC(=O)[C@H](C)NC(=O)[C@H](CCCN)NC(=O)[C@@H](NC(=O)[C@H](Cc1ccccc1)NC(=O)[C@H]1CCCN1C(=O)[C@H](N)CCCN)[C@@H](C)O)[C@@H](C)CC)[C@@H](C)CC)[C@@H](C)O)[C@@H](C)CC)C(=O)N[C@@H](CC(N)=O)C(=O)N[C@@H](CC(N)=O)C(=O)N[C@@H](Cc1ccc(O)cc1)C(=O)N[C@@H](CCCN)C(=O)N[C@@H](Cc1c[nH]c2ccccc12)C(=O)N[C@@H](CCCN)C(N)=O` [peptide 7] (H-[dOrn][dP]FT[Orn]AQWFAIQHISP[Orn]TIAM[Orn]AINNY[Orn]W[Orn]-NH2), in the data set with E. coli, the “MIC E. coli” value amounted to 3.13 µM (≈ 11 µg/mL). In addition, the “MIC A. baumannii” value in the data set with A. baumannii worked out at 6.25 µM (≈ 21.9 µg/mL). Also, the “MIC Pseudomonas sp.” value with Pseudomonas sp. [1] was 1.56 µM (≈ 5.47 µg/mL). Also, the “MIC S. enterica” value in the data set with S. enterica was found to be 25 µM (≈ 87.6 µg/mL). Further, in the data set with S. flexneri, the “MIC S. flexneri” value came to 6.25 µM (≈ 21.9 µg/mL). In addition, in the data set with horse red blood cells (250), the “hemolysis % (250 μM peptide)” value worked out at 3.6 ± 0.7%. For the same compound, the results for the IC50 (in data set [2]; in the data set with MRC-5 cells) were not above 230 µM and 170 ± 20 µM, respectively. The “MIC A. baumannii 3862” value with A. baumannii 3862 was found to be 0.78 µM (≈ 2.73 µg/mL). Moreover, the “MIC A. baumannii 3878” value against A. baumannii 3878 came to 0.78 µM (≈ 2.73 µg/mL). Moreover, the “MIC A. baumannii 3879” value in the data set on A. baumannii 3879 amounted to 1.56 µM (≈ 5.47 µg/mL). For the same compound, the “MIC A. baumannii 3880” value against A. baumannii 3880 came to 6.25 µM (≈ 21.9 µg/mL). For the same compound, the “MIC E. coli 116878” value with E. coli 116878 was found to be 6.25 µM (≈ 21.9 µg/mL). In addition, the “MIC E. coli cf073” value with E. coli cf073 was found to be 3.13 µM (≈ 11 µg/mL). In addition, in the data set on P. aeruginosa 827632, the “MIC P. aeruginosa 827632” value worked out at 25 µM (≈ 87.6 µg/mL). Further, in the data set on P. aeruginosa 827651, the “MIC P. aeruginosa 827651” value stood at 100 µM (≈ 351 µg/mL). The “MIC S. typhimurium 324” value against S. typhimurium 324 turned out to be 25 µM (≈ 87.6 µg/mL). The “MIC S. typhimurium 365” value in the data set with S. typhimurium 365 was found to be 25 µM (≈ 87.6 µg/mL). The “MBC Acinetobacter baumannii” value against Acinetobacter baumannii is 6.25 µM (≈ 21.9 µg/mL). The “MBC Escherichia coli” value against Escherichia coli came out at 3.13 µM (≈ 11 µg/mL). Moreover, the “MBC Salmonella enterica” value in the data set on Salmonella enterica amounted to 25 µM (≈ 87.6 µg/mL). The “MBC Pseudomonas sp.” value in the data set on Pseudomonas sp. [3] was 1.56 µM (≈ 5.47 µg/mL). Further, in the data set on Shigella flexneri, the “MBC Shigella flexneri” value came to 6.25 µM (≈ 21.9 µg/mL).

“RPFTRAQWFAIQHISPRTIAMRAINNYRWR-NH2 [peptide 1, hECP30]”: the “MIC E. coli” value in the data set with E. coli is 1.56 µM. Besides, the “MIC A. baumannii” value with A. baumannii came to 1.56 µM. The “MIC Pseudomonas sp.” value against Pseudomonas sp. [1] is 1.56 µM. Besides, in the data set on S. enterica, the “MIC S. enterica” value amounted to 12.5 µM. Besides, the “MIC S. flexneri” value in the data set on S. flexneri is 3.13 µM. In addition, in the data set on horse red blood cells, the “hemolytic activity at 10-fold the MIC” value is listed as “below 10%”. The compound further gave an IC50 in data set [2] of 23 ± 4 µM. Also, the “MIC A. baumannii 3862” value against A. baumannii 3862 worked out at 0.78 µM. In the data set on A. baumannii 3878, the “MIC A. baumannii 3878” value was found to be 1.56 µM. In addition, in the data set on A. baumannii 3879, the “MIC A. baumannii 3879” value worked out at 1.56 µM. Also, the “MIC A. baumannii 3880” value in the data set with A. baumannii 3880 is 1.56 µM. In addition, in the data set with E. coli 116878, the “MIC E. coli 116878” value was 6.25 µM. Moreover, in the data set with E. coli cf073, the “MIC E. coli cf073” value was 3.13 µM. The “MIC P. aeruginosa 827632” value in the data set on P. aeruginosa 827632 was found to be 12.5 µM. The “MIC P. aeruginosa 827651” value against P. aeruginosa 827651 turned out to be 25 µM. Also, the “MIC S. typhimurium 324” value against S. typhimurium 324 was 6.25 µM. The “MIC S. typhimurium 365” value against S. typhimurium 365 stood at 6.25 µM. Also, the “MBC Acinetobacter baumannii” value against Acinetobacter baumannii turned out to be 1.56 µM. For the same compound, the “MBC Escherichia coli” value against Escherichia coli is reported as 1.56 µM. Further, in the data set with Salmonella enterica, the “MBC Salmonella enterica” value is listed as 12.5 µM. For the same compound, the “MBC Pseudomonas sp.” value against Pseudomonas sp. [3] came to 1.56 µM. Also, the “MIC in Pseudomonas sp., peptides incubated with human serum” value with Pseudomonas sp. [4] is on record as 25 µM. The “MBC Shigella flexneri” value with Shigella flexneri turned out to be 3.13 µM.

What is called IC50 is the concentration needed to halve the response being measured. Higher therefore signals a need for much substance.
